Measurements as given in US6395750B1, “Drugs for the treatment of malignant tumors” (Active Biotech AB, priority 1999, dated 2002).
Marks after values point to notes of the source that are not given here. Blank lines part the entries; values can stand above or below the compound they belong to.

Tests used:
[1] = Beagle Pain Syndrome, pro-inflammatory reaction (ESR, AP); format: in vivo, beagle dog; details: beagle dogs, five consecutive days
[2] = test system: Dunning R-3327 AT-1 tumour; assay: Primary screen: tumour growth inhibition, Dunning R-3327 AT-1 prostatic cancer transplanted sc; format: in vivo, rat
Protocol: The compounds of general formula (I) were assayed for their capacity to inhibit of growth of the Dunning R-3327 AT-1 tumour, a prostatic rat cancer.
R-3327 AT-1 Prostatic cancer in man is an angiogenic type of solid tumour. The Dunning R-3327 AT-1 is a prostatic cancer of the rat and suits as an experimental animal model for this disease. The AT-1 tumour is serially transplanted subcutaneously (sc) on syngeneic rats of the Copenhagen strain. Small pieces of the tumour are transplanted sc to recipient rats and treatment of the tumour bearing rats start when the tumours are easily measurable approximately on day 10 after transplantation. Doses of the compounds are given either orally or parentally 5 days a week for four weeks. The tumour growth and body weight gain are monitored during the experimental time.

[3] = beagle dog, literature; cited from earlier work
[4] = patients with renal cell carcinoma; cited from earlier work
[5] = test system: Dunning R-3327 rat prostatic cancers; details: literature report; cited from earlier work
[6] = 8 mg/kg ip, treatment given on Day 11

- AP percentage change (Day 8 - baseline) ([1]; 1 mg/kg p. o.): 25%
- ESR percentage change (Day 8 - baseline) ([1]; 1 mg/kg p. o.): 177%
- AP percentage change (Day 8 - baseline) ([1]; 10 mg/kg p. o.): 109%
- ESR percentage change (Day 8 - baseline) ([1]; 10 mg/kg p. o.): 515%
Structure (SMILES): CCN(C(=O)c1c(O)c2c(Cl)cccc2n(C)c1=O)c1ccccc1 [Compound A, N-ethyl-N-phenyl-1,2-dihydro-4-hydroxy-5-chloro-1-methyl-2-oxo-quinoline-3-carboxamide]
- % Tumour Weight Reduction ([2]; 2 mg/kg sc): 37%

Structure (SMILES): COc1cccc2c1C(=O)c1c(O)c3c(c(O)c1C2=O)C[C@@](O)(C(=O)CO)C[C@@H]3O[C@H]1C[C@H](N)[C@H](O)[C@H](C)O1 [doxorubicin]
- % Tumour Weight Reduction ([2]; 4 mg/kg ip, treatment given on Day 11): 0%
- % Tumour Weight Reduction [2, 6]: 31^b) %
- body weight effect [2, 6]: ^b)8 mg/kg of doxorubicin caused a body weight loss

Structure (SMILES): CN(C(=O)c1c(O)c2c(Cl)cccc2n(C)c1=O)c1ccc(Cl)cc1 [B, N-methyl-N-(4-chloro-phenyl)-1,2-dihydro-4-hydroxy-5-chloro-1-methyl-2-oxo-quinoline-3-carboxamide]
- % Tumour Weight Reduction ([2]; 2 mg/kg po): 28%

Structure (SMILES): CN(C(=O)c1c(O)c2ccccc2n(C)c1=O)c1ccccc1 [Compound E, N-methyl-N-phenyl-1,2-dihydro-4-hydroxy-1-methyl-2-oxo-quinoline-3-carboxamide]
- induction of beagle pain syndrome (fever, myalgia, arthralgia, arteritis) [3]: induces the beagle pain syndrome
- patients withdrawn or having dose reductions due to adverse events [4]: 40%
- % Tumour Weight Reduction ([2]; 4 mg/kg sc): 30%
- inhibition of growth of the Dunning R-3327 AT-1 tumour ([2]; 4 mg/kg, positive treatment control): 30%
- antitumour effects [5]: antitumour effects

Structure (SMILES): CC[C@]1(O)C[C@@H]2CN(CCc3c([nH]c4ccccc34)[C@@](C(=O)OC)(c3cc4c(cc3OC)N(C)[C@H]3[C@@](O)(C(=O)OC)[C@H](OC(C)=O)[C@]5(CC)C=CCN6CC[C@]43[C@@H]65)C2)C1 [vinblastine]
- % Tumour Weight Reduction ([2]; 1 mg/kg iv, treatment given on Day 11): 0%
- % Tumour Weight Reduction ([2]; 4 mg/kg iv, treatment given on Day 11): toxic

Structure (SMILES): CSc1cccc2c1c(O)c(C(=O)N(C)c1ccc(F)cc1F)c(=O)n2C [C, N-methyl-N-(2,4-difluoro-phenyl)-1,2-dihydro-4-hydroxy-5-thiomethyl-1-methyl-2-oxo-quinoline-3-carboxamide]
- % Tumour Weight Reduction ([2]; 2 mg/kg po): 39%

Structure (SMILES): Cc1cccc2c1c(N)c(C(=O)N(C)c1ccccc1)c(=O)n2C [Compound D, N-methyl-N-phenyl-4-amino-1,2-dihydro-1,5-dimethyl-2-oxo-quinoline-3-carboxamide]
- % Tumour Weight Reduction ([2]; 2 mg/kg sc): 38%
